According to publication PMC10804683, “Identification of the pyridoxal 5′‐phosphate allosteric site in human pyridox(am)ine 5′‐phosphate oxidase” (Protein Science : A Publication of the Protein Society, 2024):
Where “and” joins values, the source holds several entries; their conditions need not be identical. Identical values can stand only once.

Tests used:
[1] = target: T1, human PNPO F48A/E50L/H248N/R258L variant (Homo sapiens, UniProt Q9NVS9, E50L/F48A/H248N/R258L); assay: PLP binding by DSF, quadruple variant; conditions: 50 mM Na-HEPES pH 7.6, 2 μM enzyme
T1 construct: a main form corresponding to the entire protein; made in house; host or cells: E. coli BL21(DE3)
T1 sequence (Q9NVS9 1-261 F48A/E50L/H248N/R258L): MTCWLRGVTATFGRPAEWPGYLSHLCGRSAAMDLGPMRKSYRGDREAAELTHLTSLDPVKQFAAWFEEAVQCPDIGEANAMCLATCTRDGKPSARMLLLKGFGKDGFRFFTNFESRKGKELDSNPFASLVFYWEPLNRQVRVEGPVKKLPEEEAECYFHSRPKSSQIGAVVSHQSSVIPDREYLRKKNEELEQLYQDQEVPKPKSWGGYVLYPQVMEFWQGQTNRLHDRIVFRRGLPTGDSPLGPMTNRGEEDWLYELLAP
Source text: PLP binding to PNPO can be detected and quantitatively measured using differential scanning fluorimetry (DSF) and also by measuring FMN fluorescence changes. We had previously attributed DSF changes to PLP binding at the active site, while FMN fluorescence changes were attributed to PLP binding at the allosteric site (Barile et al., [2019], [2020]). Previous experiments carried out with the PNPO R161C variant, affecting a residue that is essential for substrate binding and catalysis (and therefore also for PLP binding at the active site), confirms that DSF measurements only report PLP binding at the active site (Barile et al., [2021]; Table 1). […] We expected to observe no FMN fluorescence changes upon titration of the variants with PLP. However, this was not the case, and the dissociation constant values obtained by observing the FMN fluorescence emission were only up to threefold larger in the variants with respect to wild type PNPO (Figure 3). […] To check the second possibility, we measured intrinsic fluorescence changes of wild type and variant apo‐forms (i.e., without FMN) upon PLP titration. […]
FIGURE 2 DSF measurements with F48A (a), F48A/E50L/R258L (b), F48A/E50L/H248N/R258L (c), and 1‐31del PNPO variants in the presence of different PLP concentrations. Upper panels: Fluorescence change is expressed as fractional variation as a function of temperature. […]

[2] = target: T2, human PNPO 1-31del variant (holo-enzyme) (Homo sapiens, UniProt Q9NVS9); assay: PLP binding by FMN fluorescence changes, holo 1-31del; conditions: read-out: PLP binding KD^FLUO
T2 construct: a main form corresponding to the entire protein; made in house; host or cells: E. coli BL21(DE3)
T2 sequence (Q9NVS9 32-261): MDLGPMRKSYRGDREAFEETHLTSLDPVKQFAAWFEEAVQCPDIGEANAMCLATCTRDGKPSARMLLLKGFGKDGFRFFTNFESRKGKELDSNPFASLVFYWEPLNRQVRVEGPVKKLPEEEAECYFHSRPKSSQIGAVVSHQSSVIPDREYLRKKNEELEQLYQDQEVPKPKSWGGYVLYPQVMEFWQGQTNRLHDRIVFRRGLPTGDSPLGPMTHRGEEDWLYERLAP
Source text: In order to further confirm the location of the PNPO allosteric site, we made several attempts to obtain the crystal structure of the protein‐PLP complex. With the E. coli homologue, any attempt to obtain such a complex with the wild type protein yielded structures in which PLP was bound at the active site, and we could obtain a complex with PLP bound at the allosteric site only when we used a multiple variant form of the enzyme in which the capability to bind ligands at the active site was impaired (Barile et al., [2021]). On the basis of this previous experience, we carried out co‐crystallization attempts with either the wild type or the R225H variant of the human protein and PLP. […] We obtained crystals with both protein forms (Table S1); however, PLP was detected only in the active site of the wild type protein, thus a clear indication about the location of the allosteric site was missing. […] The most interesting features of the 1‐31del form are a lower KD for PLP binding (threefold lower with respect to wild type PNPO), which indicates a higher affinity for the allosteric site, and the related more marked allosteric inhibition, which is evident from the comparison of the reaction kinetics measured in TRIS and HEPES buffers (Figure 7). […]

- Kd [1]: 6.07 µM and 6.1 µM
- Kd [2]: 0.31 ± 0.03 µM
Structure (SMILES): Cc1ncc(COP(=O)(O)O)c(C=O)c1O [PLP, pyridoxal 5′‐phosphate]
